Counter-ions that a name gives are not always drawn. ± gives the standard deviation of the averaged measurements.
Test system: MES-SA
Assay: relative viability vs DMSO control (72 h) (fraction); higher = more viable cells
How it was run: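 Relative viability is percent growth read by ATPLite and averaged over up to triplicate wells. Sarcoma cells were seeded in 384-well plates to reach 80–90% confluence and given 2.5 µl of serially diluted compound after 24 h, from source plates of 10 mM to 0.0002 mM. Incubation lasted 72 h at 37 °C, 5% CO2, with 0.1% DMSO vehicle and a 5 µM positive control, and the data were rescaled so 1 equals full and 0 equals none.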

Row | SMILES | relative viability (0.00017 µM) | relative viability (0.00051 µM) | relative viability (0.00152 µM) | relative viability (0.00457 µM) | relative viability (0.01372 µM) | relative viability (0.04115 µM) | relative viability (0.1235 µM) | relative viability (0.3704 µM) | relative viability (1.111 µM) | relative viability (3.333 µM) | relative viability (10 µM)
1 | CC(C)(C)c1cc(NC(=O)Nc2ccc(-c3cn4c(n3)sc3cc(OCCN5CCOCC5)ccc34)cc2)no1 [Quizartinib] | 0.944 ± 0.012 | 0.974 ± 0.019 | 0.94 ± 0.015 | 0.935 ± 0.046 | 0.937 ± 0.023 | 0.931 ± 0.016 | 0.953 ± 0.025 | 0.933 ± 0.031 | 0.823 ± 0.017 | 0.602 ± 0.041 | 0.577 ± 0.025
2 | CNC(=O)c1ccc(-c2cnc3ncc(Cc4ccc5ncccc5c4)n3n2)cc1F [Capmatinib] | 0.93 ± 0.025 | 0.959 ± 0.037 | 0.958 ± 0.028 | 0.953 ± 0.057 | 0.943 ± 0.012 | 0.945 ± 0.036 | 0.982 ± 0.012 | 0.934 ± 0.012 | 0.937 ± 0.055 | 0.867 ± 0.035 | 0.837 ± 0.025
3 | CC(C)N1CCN(Cc2cnc(-c3cc(-c4cccc5[nH]ccc45)cc4[nH]ncc34)o2)CC1 [Nemiralisib] | 0.967 ± 0.032 | 0.961 ± 0.022 | 0.953 ± 0.05 | 0.958 ± 0.05 | 0.977 ± 0.033 | 0.926 ± 0.039 | 0.979 ± 0.047 | 0.964 ± 0.043 | 0.911 ± 0.024 | 0.764 ± 0.028 | 0.486 ± 0.027
4 | C[C@@H](c1ccc2nccn2c1)n1nnc2ncc(-c3cnn(C)c3)nc21 [Volitinib] | 0.91 ± 0.021 | 0.92 ± 0.053 | 0.97 ± 0.022 | 0.927 ± 0.043 | 0.959 ± 0.019 | 0.957 ± 0.026 | 0.929 ± 0.039 | 0.949 ± 0.029 | 0.926 ± 0.018 | 0.942 ± 0.018 | 0.902 ± 0.035
5 | COc1c(OCCCN2CCOCC2)ccc2c1N=C(NC(=O)c1cnc(N)nc1)N1CCN=C21 [Copanlisib] | 0.966 ± 0.029 | 0.926 ± 0.031 | 0.9 ± 0.019 | 0.633 ± 0.029 | 0.502 ± 0.016 | 0.374 ± 0.0084 | 0.273 ± 0.0095 | 0.164 ± 0.0066 | 0.147 ± 0.0029 | 0.18 ± 0.0026 | 0.159 ± 0.0078
6 | CCN1CCN(Cc2ccc(Nc3ncc(F)c(-c4cc(F)c5nc(C)n(C(C)C)c5c4)n3)nc2)CC1 [Abemaciclib] | 0.883 ± 0.026 | 0.901 ± 0.035 | 0.878 ± 0.02 | 0.873 ± 0.031 | 0.876 ± 0.05 | 0.84 ± 0.046 | 0.736 ± 0.037 | 0.61 ± 0.031 | 0.435 ± 0.012 | 0.361 ± 0.0072 | 0.348 ± 0.023
7 | C[C@]1(O)C[C@@H](c2nc(-c3ccc4ccc(-c5ccccc5)nc4c3)c3c(N)nccn32)C1 [Linsitinib] | 0.983 ± 0.02 | 0.958 ± 0.021 | 0.9582 ± 0.0041 | 0.926 ± 0.015 | 0.962 ± 0.015 | 0.943 ± 0.025 | 0.958 ± 0.035 | 0.898 ± 0.024 | 0.887 ± 0.01 | 0.784 ± 0.0085 | 0.63 ± 0.023
8 | Cc1ccc(NC(=O)c2ccc(CN3CCN(C)CC3)cc2)cc1Nc1nc(-c2cccnc2)cs1 [Masitinib] | 0.978 ± 0.013 | 0.969 ± 0.014 | 0.955 ± 0.021 | 0.96 ± 0.028 | 0.952 ± 0.011 | 0.956 ± 0.015 | 0.912 ± 0.025 | 0.905 ± 0.026 | 0.735 ± 0.029 | 0.445 ± 0.017 | 0.11 ± 0.011
9 | CN1CCN(c2ccc3nc(-c4c(N)c5c(F)cccc5[nH]c4=O)[nH]c3c2)CC1 [Dovitinib] | 0.945 ± 0.032 | 0.974 ± 0.029 | 0.95 ± 0.021 | 0.95 ± 0.017 | 0.9483 ± 0.0052 | 0.9283 ± 0.009 | 0.921 ± 0.04 | 0.836 ± 0.041 | 0.4858 ± 0.0047 | 0.191 ± 0.012 | 0.0897 ± 0.0022
10 | CC(=O)Nc1cccc(-n2c(=O)n(C3CC3)c(=O)c3c(Nc4ccc(I)cc4F)n(C)c(=O)c(C)c32)c1 [Trametinib] | 0.968 ± 0.022 | 0.965 ± 0.012 | 0.929 ± 0.017 | 0.873 ± 0.029 | 0.831 ± 0.015 | 0.78 ± 0.011 | 0.76 ± 0.015 | 0.736 ± 0.034 | 0.683 ± 0.032 | 0.701 ± 0.017 | 0.6906 ± 0.006
11 | C=CC(=O)N1CCC[C@@H](n2nc(-c3ccc(Oc4ccccc4)cc3)c3c(N)ncnc32)C1 [Ibrutinib] | 1 ± 0.018 | 0.977 ± 0.021 | 0.955 ± 0.041 | 0.947 ± 0.029 | 0.966 ± 0.026 | 0.964 ± 0.026 | 0.931 ± 0.03 | 0.864 ± 0.011 | 0.866 ± 0.045 | 0.88 ± 0.022 | 0.6991 ± 0.0047
12 | COc1cc2/c(=N/c3ccc(Br)cc3F)nc[nH]c2cc1OCC1CCN(C)CC1 [Vandetanib] | 0.907 ± 0.02 | 0.925 ± 0.033 | 0.9 ± 0.013 | 0.932 ± 0.041 | 0.909 ± 0.053 | 0.907 ± 0.054 | 0.926 ± 0.022 | 0.909 ± 0.035 | 0.804 ± 0.029 | 0.6028 ± 0.0021 | 0.127 ± 0.0064
13 | C[C@@H]1COCCN1c1cc(-c2ccnn2C)c2ccnc(-c3ccn[nH]3)c2n1 | 0.952 ± 0.028 | 0.934 ± 0.025 | 0.9269 ± 0.0056 | 0.924 ± 0.028 | 0.878 ± 0.013 | 0.752 ± 0.019 | 0.489 ± 0.012 | 0.31 ± 0.022 | 0.175 ± 0.0043 | 0.122 ± 0.0046 | 0.113 ± 0.003
14 | COc1cccc2c1C(=O)c1c(O)c3c(c(O)c1C2=O)C[C@@](O)(C(=O)CO)C[C@@H]3O[C@H]1C[C@H](N)[C@H](O)[C@H](C)O1 [Doxorubicin Hydrochloride] | 0.975 ± 0.028 | 0.937 ± 0.042 | 0.934 ± 0.024 | 0.89 ± 0.024 | 0.66 ± 0.036 | 0.39 ± 0.0073 | 0.313 ± 0.01 | 0.201 ± 0.0045 | 0.0143 ± 0.0029 | 0.0402 ± 0.002 | 0.03487 ± 0.00029
15 | O=C(Nc1cnn2ccc(N3CCC[C@@H]3c3cc(F)ccc3F)nc12)N1CC[C@H](O)C1 [Larotrectinib] | 0.929 ± 0.024 | 0.932 ± 0.046 | 0.923 ± 0.054 | 0.896 ± 0.056 | 0.931 ± 0.022 | 0.929 ± 0.039 | 0.894 ± 0.073 | 0.897 ± 0.022 | 0.916 ± 0.027 | 0.893 ± 0.048 | 0.877 ± 0.015
16 | Cc1cc(C)c(/C=C2\C(=O)Nc3ccccc32)[nH]1 [Semaxanib] | 0.908 ± 0.058 | 0.866 ± 0.02 | 0.866 ± 0.022 | 0.892 ± 0.027 | 0.882 ± 0.04 | 0.861 ± 0.061 | 0.871 ± 0.059 | 0.895 ± 0.035 | 0.889 ± 0.044 | 0.867 ± 0.041 | 0.798 ± 0.048
17 | CC1(C)CNc2cc(NC(=O)c3cccnc3NCc3ccncc3)ccc21 [Motesanib] | 0.93 ± 0.044 | 0.946 ± 0.034 | 0.962 ± 0.01 | 0.937 ± 0.023 | 0.949 ± 0.061 | 0.947 ± 0.047 | 0.961 ± 0.02 | 1 ± 0.044 | 0.96 ± 0.035 | 0.948 ± 0.013 | 0.849 ± 0.041
18 | Cc1nc(-c2cn3c(n2)-c2ccc(-c4cnn(C(C)(C)C(N)=O)c4)cc2OCC3)n(C(C)C)n1 [Taselisib] | 0.901 ± 0.028 | 0.9023 ± 0.004 | 0.887 ± 0.033 | 0.858 ± 0.021 | 0.797 ± 0.035 | 0.692 ± 0.01 | 0.504 ± 0.015 | 0.386 ± 0.014 | 0.299 ± 0.0098 | 0.214 ± 0.0027 | 0.146 ± 0.0072
19 | CC(C)NC(=O)C1CCC(n2c(NC(=O)c3ccc(F)cc3)nc3ccc(CN4CCC(C(C)(C)O)CC4)cc32)CC1 (centres undefined) [Belizatinib] | 0.942 ± 0.023 | 0.92 ± 0.026 | 0.934 ± 0.012 | 0.957 ± 0.023 | 0.932 ± 0.018 | 0.9451 ± 0.0052 | 0.9316 ± 0.0039 | 0.934 ± 0.037 | 0.824 ± 0.022 | 0.523 ± 0.024 | 0.148 ± 0.016
